From patent US20250277012A1 (Protagonist Therapeutics, Inc., priority 2021, published 2025)
Like-named read-outs stand apart in the source and are kept apart here. Starred links: 1 amine or outer side, 2 acyl side, 3 side chain; linkers in the order of their positions; H or OH if unused. Positions of bridges follow the written chain, without caps; N, C: chain ends. Non-standard residues stand in square brackets, D forms with d. Residues, ends and D or L forms follow the SMILES beside them. Groups on a side chain read outwards from the residue. *: point of attachment. X1 = C[N+](C)(CCNC(=O)CCCCCCCCCCCCCCCCC(=O)O)CC(=O)*; C18 diacid = O=C(O)CCCCCCCCCCCCCCCCC(=O)*; Dip = N[C@H](C(=O)O)C(c1ccccc1)c1ccccc1; X6 = O=C([C@H](CC1N=NN=N1)N[*:1])[*:2]; γGlu = O=C(O)[C@H](CCC(=O)[*:2])N[*:1]; Ethylenediamine = C(CN[*:2])N[*:1]; Palmitoyl = CCCCCCCCCCCCCCCC(=O)*; NMeF = CN[C@@H](Cc1ccccc1)C(=O)O; dNMeQ = CN[C@H](CCC(N)=O)C(=O)O; β3hF = N[C@H](CC(=O)O)Cc1ccccc1; NMeK = CN[C@@H](CCCCN)C(=O)O; Pen = CC(C)(S)[C@H](N)C(=O)O; Isovaleryl = CC(C)CC(=O)*; dNMeS = CN[C@H](CO)C(=O)O; hCys = N[C@@H](CCS)C(=O)O; Dab = NCC[C@H](N)C(=O)O; Dap = NC[C@H](N)C(=O)O; AEEA = NCCOCCOCC(=O)O; Ahx = NCCCCCC(=O)O

Experiments:
ferroportin [1] = target: T1, ferroportin (Homo sapiens, UniProt Q9NP59); experiment: FPN activity assay: ferroportin-GFP internalization/degradation in HEK293 cells; type: cell-based; design: expressed in transfected cells; conditions: read-out: FPN IC50
T1 sequence (Q9NP59 1-571): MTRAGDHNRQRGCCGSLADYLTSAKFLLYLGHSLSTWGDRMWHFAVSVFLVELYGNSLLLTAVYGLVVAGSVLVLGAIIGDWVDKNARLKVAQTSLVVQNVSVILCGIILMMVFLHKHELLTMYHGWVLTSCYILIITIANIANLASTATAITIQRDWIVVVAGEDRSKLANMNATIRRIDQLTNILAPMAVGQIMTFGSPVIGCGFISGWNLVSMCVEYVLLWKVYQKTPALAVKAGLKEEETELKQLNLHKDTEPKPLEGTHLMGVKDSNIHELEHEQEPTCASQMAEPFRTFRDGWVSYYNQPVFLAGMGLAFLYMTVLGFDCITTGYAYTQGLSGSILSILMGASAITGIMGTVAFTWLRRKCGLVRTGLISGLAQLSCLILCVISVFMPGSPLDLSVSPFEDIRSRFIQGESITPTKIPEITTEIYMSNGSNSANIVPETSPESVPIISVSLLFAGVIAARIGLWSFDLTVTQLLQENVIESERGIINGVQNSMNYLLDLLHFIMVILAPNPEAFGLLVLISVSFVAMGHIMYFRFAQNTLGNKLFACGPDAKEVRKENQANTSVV
Protocol: Following internalization, the ferroporin protein is degraded.
A retro inverse peptide is a peptide with a reversed sequence in all D amino acids. An example is that Hy-Glu-Thr-His-NH2 becomes Hy-DHis-DThr-DGlu-NH2. The EC50 of these reference compounds for ferroportin internalization/degradation was determined according to the FPN activity assay described above. These peptides served as control standards.

ferroportin [2] = target: T1, ferroportin; experiment: T47D cell-based ferroportin internalization assay in presence of mouse serum albumin (MSA); design: a human breast carcinoma adherent cell line which endogenously expresses ferroportin; host or cells: T47D
Summary of the method: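 Peptide potency for inducing ferroportin internalization was measured in T47D cells in the presence of serum albumin. Cells grown in RPMI with fetal bovine serum were seeded in 96-well plates at 80-100 k cells per well in 100 ul and rested overnight. Dilution series of test peptides were preincubated 30 min at room temperature, then added to the cells after the medium was aspirated.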

[3] = ferroportin-GFP internalization/degradation, HEK293 cells, Table 6E
[4] = T47D internalization assay in presence of mouse serum albumin (MSA), Table 6E
[5] = Table 6E, ferroportin-GFP internalization/degradation, at least 18 hours incubation
[6] = Table 6E, T47D internalization assay with MSA
[7] = ferroportin-GFP HEK293 cells, at least 18 hours
[8] = T47D cells, 0.5% mouse serum albumin, 1 hr incubation

Structure (SMILES) | DC50 (ferroportin [1]; [3]) [µM] | IC50 (ferroportin [2]; [4]) [µM] | other results
COC(=O)CC[C@H](NC(=O)CC(C)C)C(=O)N[C@@H](CO)C(=O)N[C@@H](Cc1c[nH]cn1)C(=O)N(C)[C@@H](Cc1ccccc1)C(=O)N1CCC[C@H]1C(=O)N[C@H]1CSSC[C@@H](C(=O)N(C)[C@@H](CCCCNC(=O)CCCCCNC(=O)C[N+](C)(C)CCNC(=O)CCCCCCCCCCCCCCCCC(=O)O)C(=O)N[C@H](C(=O)N[C@H](CCCCN)C(N)=O)C(c2ccccc2)c2ccccc2)NC1=O [compound 148] (Isovaleryl-E(OMe)SH[NMeF]PCC[NMeK]([Ahx-X1])[Dip][dK]-NH2; disulfide 6-7) |  |  | DC50 (ferroportin [1]; [5]): > 0.5 µM; IC50 (ferroportin [2]; [6]): > 0.5 µM
CCCCCCCCCCCCCCCC(=O)NCCCCCC(=O)NCCCC[C@H]1C(=O)N[C@@H](C(c2ccccc2)c2ccccc2)C(=O)NCCNC(=O)CC[C@H](NC(=O)CC(C)C)C(=O)N[C@@H]([C@@H](C)O)C(=O)N[C@@H](Cc2c[nH]cn2)C(=O)N[C@@H](C(c2ccccc2)c2ccccc2)C(=O)N2CCC[C@H]2C(=O)N[C@H]2CSSC[C@H](NC2=O)C(=O)N1C [compound 161] (Isovaleryl-ETH[Dip]PCC[NMeK]([Ahx-Palmitoyl])[Dip]; linker 1-C via Ethylenediamine; disulfide 6-7) |  |  | DC50 (ferroportin [1]; [5]): 0.001 to 0.01 µM; IC50 (ferroportin [2]; [6]): 0.01 to 0.1 µM
CC(C)CC(=O)N[C@@H](CCC(=O)O)C(=O)N[C@H](C(=O)N[C@@H](Cc1cnc[nH]1)C(=O)N[C@H](C(=O)N1CCC[C@H]1C(=O)N[C@H]1CSSC[C@@H](C(=O)N(C)[C@@H](CCCCNC(=O)COCCOCCNC(=O)COCCOCCNC(=O)[C@H](CN)NC(=O)CCCCCCCCCCCCCCCCC(=O)O)C(=O)N[C@H](CC(=O)N[C@H](CCCCN)C(=O)N(C)[C@H](CO)C(N)=O)Cc2ccccc2)NC1=O)C(c1ccccc1)c1ccccc1)[C@@H](C)O [compound 247] (Isovaleryl-ETH[Dip]PCC[NMeK]([AEEA-AEEA-Dap-C18 diacid])[β3hF][dK][dNMeS]-NH2; disulfide 6-7) | 0.01 to 0.1 | 0.001 to 0.01 | 
CC(C)CC(=O)N[C@@H](CCC(=O)O)C(=O)N[C@H](C(=O)N[C@@H](Cc1c[nH]cn1)C(=O)N[C@H](C(=O)N1CCC[C@H]1C(=O)N[C@H]1CSSC[C@@H](C(=O)N(C)[C@@H](CCCCNC(=O)COCCOCCNC(=O)COCCOCCNC(=O)[C@H](CN)NC(=O)CCCCCCCCCCCCCCCCC(=O)O)C(=O)N[C@H](CC(=O)N[C@@H](CCN)C(N)=O)Cc2ccccc2)NC1=O)C(c1ccccc1)c1ccccc1)[C@@H](C)O [compound 264] (Isovaleryl-ETH[Dip]PCC[NMeK]([AEEA-AEEA-Dap-C18 diacid])[β3hF][Dab]-NH2; disulfide 6-7) | 0.01 to 0.1 | 0.01 to 0.1 | 
CCCCCCCCCCCCCCCC(=O)NCCCCCC(=O)NCCCC[C@H](NC(=O)[C@@H]1CSSC[C@H](NC(=O)[C@@H]2CCCN2C(=O)[C@@H](NC(=O)[C@H](Cc2c[nH]cn2)NC(=O)[C@@H](NC(=O)[C@H](CCC(=O)OC)NC(=O)CC(C)C)[C@@H](C)O)C(c2ccccc2)c2ccccc2)C(=O)N1)C(=O)N[C@H](CC(=O)N[C@H](CCCCN)C(N)=O)Cc1ccccc1 [Compd 40] (Isovaleryl-E(OMe)TH[Dip]PCCK([Ahx-Palmitoyl])[β3hF][dK]-NH2; disulfide 6-7) |  |  | DC50 (ferroportin [1]; [7]): 0.01 to 0.1 µM; IC50 (ferroportin [2]; [8]): 0.001 to 0.01 µM
CC[C@H](C)[C@@H]1NC(=O)[C@@H](NC(=O)[C@@H]2CCCN2C(=O)[C@@H](NC(=O)[C@H](Cc2c[nH]cn2)NC(=O)[C@@H](NC(=O)[C@H](CCC(=O)O)NC(=O)CC(C)C)[C@@H](C)O)C(c2ccccc2)c2ccccc2)CSSC[C@@H](C(=O)N[C@H](CC(=O)N[C@@H](CCCCNC(=O)COCCOCCNC(=O)COCCOCCNC(=O)CC[C@H](NC(=O)CCCCCCCCCCCCCCCCC(=O)O)C(=O)O)C(=O)N[C@H](CCCCN)C(N)=O)Cc2ccccc2)NC1=O [Compd 36] (Isovaleryl-ETH[Dip]PCIC[β3hF]K([AEEA-AEEA-γGlu-C18 diacid])[dK]-NH2; disulfide 6-8) |  |  | DC50 (ferroportin [1]; [7]): 0.01 to 0.1 µM; IC50 (ferroportin [2]; [8]): 0.01 to 0.1 µM
CC(C)CC(=O)N[C@@H](CCC(=O)O)C(=O)N[C@H](C(=O)N[C@@H](Cc1c[nH]cn1)C(=O)N[C@H](C(=O)N1CCC[C@H]1C(=O)N[C@H]1CSSC[C@@H](C(=O)N(C)[C@@H](CCCCNC(=O)COCCOCCNC(=O)COCCOCCNC(=O)[C@H](CN)NC(=O)CCCCCCCCCCCCCCCCC(=O)O)C(=O)N[C@H](CC(=O)N[C@H](CCCCN)C(=O)N(C)[C@H](CCC(N)=O)C(N)=O)Cc2ccccc2)NC1=O)C(c1ccccc1)c1ccccc1)[C@@H](C)O [compound 248] (Isovaleryl-ETH[Dip]PCC[NMeK]([AEEA-AEEA-Dap-C18 diacid])[β3hF][dK][dNMeQ]-NH2; disulfide 6-7) | 0.01 to 0.1 | 0.01 to 0.1 | 

The next lines start with results.

DC50 (ferroportin [1]; [3]) [µM] | IC50 (ferroportin [2]; [4]) [µM] | Structure (SMILES) | other results
0.01 to 0.1 | 0.01 to 0.1 | COC(=O)CC[C@H](NC(=O)CC(C)C)C(=O)N[C@H](C(=O)N[C@@H](Cc1c[nH]cn1)C(=O)N[C@H](C(=O)N1CCC[C@H]1C(=O)N[C@H]1CSSC[C@@H](C(=O)N(C)[C@@H](CCCCNC(=O)COCCOCCNC(=O)COCCOCCNC(=O)[C@H](CN)NC(=O)CCCCCCCCCCCCCCCCC(=O)O)C(=O)N[C@H](CC(=O)N[C@H](CCCCN)C(N)=O)Cc2ccccc2)NC1=O)C(c1ccccc1)c1ccccc1)[C@@H](C)O [compound 305] (Isovaleryl-E(OMe)TH[Dip]PCC[NMeK]([AEEA-AEEA-Dap-C18 diacid])[β3hF][dK]-NH2; disulfide 6-7) | 
0.01 to 0.1 | 0.01 to 0.1 | CC(C)CC(=O)N[C@@H](CCC(=O)O)C(=O)N[C@H](C(=O)N[C@@H](Cc1c[nH]cn1)C(=O)N[C@H](C(=O)N1CCC[C@H]1C(=O)N[C@H]1CSSC[C@@H](C(=O)N(C)[C@@H](CCCCNC(=O)COCCOCCNC(=O)COCCOCCNC(=O)[C@H](CN)NC(=O)CCCCCCCCCCCCCCCCC(=O)O)C(=O)N[C@H](CC(N)=O)Cc2ccccc2)NC1=O)C(c1ccccc1)c1ccccc1)[C@@H](C)O [compound 295] (Isovaleryl-ETH[Dip]PCC[NMeK]([AEEA-AEEA-Dap-C18 diacid])[β3hF]-NH2; disulfide 6-7) | 
0.01 to 0.1 | 0.01 to 0.1 | CC(C)CC(=O)N[C@@H](CC1N=NN=N1)C(=O)N[C@H](C(=O)N[C@@H](Cc1cnc[nH]1)C(=O)N[C@H](C(=O)N1CCC[C@H]1C(=O)N[C@H]1CSSC[C@@H](C(=O)N(C)[C@@H](CCCCNC(=O)COCCOCCNC(=O)COCCOCCNC(=O)[C@H](CN)NC(=O)CCCCCCCCCCCCCCCCC(=O)O)C(=O)N[C@H](CC(=O)N[C@H](CCCCN)C(N)=O)Cc2ccccc2)NC1=O)C(c1ccccc1)c1ccccc1)[C@@H](C)O [compound 288] (Isovaleryl-[X6]TH[Dip]PCC[NMeK]([AEEA-AEEA-Dap-C18 diacid])[β3hF][dK]-NH2; disulfide 6-7) | 
0.01 to 0.1 | 0.01 to 0.1 | CC(C)CC(=O)N[C@@H](CCC(=O)O)C(=O)N[C@H](C(=O)N[C@@H](Cc1c[nH]cn1)C(=O)N[C@H](C(=O)N1CCC[C@H]1C(=O)N[C@H]1CSSC(C)(C)[C@@H](C(=O)N[C@@H](CCCCNC(=O)COCCOCCNC(=O)COCCOCCNC(=O)[C@H](CN)NC(=O)CCCCCCCCCCCCCCCCC(=O)O)C(=O)N[C@H](CC(=O)N[C@H](CCCCN)C(N)=O)Cc2ccccc2)NC1=O)C(c1ccccc1)c1ccccc1)[C@@H](C)O [compound 272] (Isovaleryl-ETH[Dip]PC[Pen]K([AEEA-AEEA-Dap-C18 diacid])[β3hF][dK]-NH2; disulfide 6-7) | 
0.01 to 0.1 | 0.01 to 0.1 | CC(C)CC(=O)N[C@@H](CCC(=O)O)C(=O)N[C@H](C(=O)N[C@@H](Cc1c[nH]cn1)C(=O)N[C@H](C(=O)N1CCC[C@H]1C(=O)N[C@H]1CSSC[C@@H](C(=O)N[C@@H](CCCCNC(=O)CCCCCNC(=O)C[N+](C)(C)CCNC(=O)CCCCCCCCCCCCCCCCC(=O)O)C(=O)N[C@H](CC(=O)N[C@H](CCCCN)C(N)=O)Cc2ccccc2)NC1=O)C(c1ccccc1)c1ccccc1)[C@@H](C)O [compound 312] (Isovaleryl-ETH[Dip]PCCK([Ahx-X1])[β3hF][dK]-NH2; disulfide 6-7) | 
0.01 to 0.1 | 0.01 to 0.1 | CC(C)CC(=O)N[C@@H](CCC(=O)O)C(=O)N[C@H](C(=O)N[C@@H](Cc1c[nH]cn1)C(=O)N[C@H](C(=O)N1CCC[C@H]1C(=O)N[C@H]1CCSSCC[C@@H](C(=O)N[C@@H](CCCCNC(=O)COCCOCCNC(=O)COCCOCCNC(=O)[C@H](CN)NC(=O)CCCCCCCCCCCCCCCCC(=O)O)C(=O)N[C@H](CC(=O)N[C@H](CCCCN)C(N)=O)Cc2ccccc2)NC1=O)C(c1ccccc1)c1ccccc1)[C@@H](C)O [compound 268] (Isovaleryl-ETH[Dip]P[hCys][hCys]K([AEEA-AEEA-Dap-C18 diacid])[β3hF][dK]-NH2; disulfide 6-7) | 
